Data taken from patent publication US20230165865A1, “HETEROARYLDIHYDROPYRIMIDINE DERIVATIVES AND METHODS OF TREATING HEPATITIS B INFECTIONS” (Janssen Pharmaceutica NV, priority 2018, published 2023).

Tested on: human hepatocytes
Test: Metabolic stability of test compound in human hepatocyte cell
Format: in vitro ADME
Settings: comparing with reference 1 and reference 2
How it was run: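 Compounds at 1.0 μM were incubated at 37 °C with cryopreserved human hepatocytes (1×10^6 viable cells/mL) and sampled from 0 to 120 min into cold acetonitrile, then analysed by LC-MS/MS. Half-life came from regression of parent disappearance over time. It was converted to CLint (μL/min/10^6 cells) and to scaled liver CLint (mL/min/kg).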

SMILES: CCOC(=O)C1=C(CN2CCN3C(=S)N(CC(C)(C)C(=O)O)CC3C2)NC(c2nccs2)=N[C@H]1c1cccc(F)c1C (single isomer, unassigned) [Compound 1A]
- metabolic stability in human hepatocyte cells, in words: improved metabolic stability
